In patent US7226598B2, “Peptide inhibitors of HIV entry” (priority 1998, dated 2007):
Like-named read-outs stand apart in the source and are kept apart here. Marks after values point to notes of the source that are not given here.

Tests used:
[1] = Sedimentation equilibrium (analytical ultracentrifugation); format: physicochemical
Method: Sedimentation Equilibrium. All measurements were recorded on a Beckman XL-A analytical ultracentrifuge equipped with an An-60 Ti rotor. Lyophilized peptide was resuspended in water, and the peptide concentration was determined (Edelhoch, 1967). The solution was diluted to 100–200 μM and then dialized overnight against PBS. Following dialysis, the concentration was redetermined and the appropriate dilutions were made, using the dialysis buffer. The samples were centrifuged at speeds ranging from 19,000 to 25,000 RPM.

[2] = Circular dichroism (helicity); format: physicochemical; conditions: for θ222 nm: 20 μM solution of peptide in PBS (legend of Table 1); for helicity: at 20 μM; for CD minimum at 222 nm: 10 μM
Method: Circular Dichroism. All CD measurements were performed on an Aviv 62 DS cirucular dichroism spectrometer. […] The mean residue ellipticity (θ) was calculated by dividing the raw signal by peptide concentration (M), pathlength (mm) and number of amino acids. Percent helicity was calculated according to Chen et al. (Biochemistry, 13, 1974, p3350). Thermal denaturation scans of 10 μM peptide solutions in PBS were recorded at 222 nm. The peptide was heated at two degree intervals starting at 4° C., with an equilibration time of 1.5 minutes and an averaging time of 60 seconds.

[3] = Thermal denaturation followed by CD at 222 nm; format: physicochemical; conditions: in 2 M GuHCl
HIV-1 = system: HIV-1
Method: HIV Infectivity Assay. Inhibitory activity of IQN17 and derivatives was determined in an HIV luciferase assay (Chen et al., 1994). Specifically, virus was made by cotransfecting 293T cells with an HIV-1 genome containing a frame-shift mutation in env and luciferase replacing the nef gene (NL43LucR-E-) along with pCMVHXB2, an expression vector with the HXB2 gp160 gene. The resultant virus is only viable for one round of infection since its genome lacks the envelope gene. The cellular debris was removed by low-speed centrifugation. The remaining viral supernatant was used to infect HOS-CD4/Fusion cells (N. Landau, National Institutes of Health AIDS Reagent Program) in the presence of the potentially inhibitory peptides. Two days post infection, the cells were lysed and luciferase activity was monitored on a Wallac AutoLumat LB953 luminometer (Gaithersburg, Md.). IC50s (the peptide concentration at which half of the viral infection is inhibited) were calculated by fitting the data to a Langmuir equation [y=k/(1+[peptide]/IC50)], where y=luciferase activity and k is a scaling constant.

[4] = Thermal denaturation followed by CD at 222 nm; format: physicochemical
Method: Circular Dichroism. All CD measurements were performed on an Aviv 62 DS cirucular dichroism spectrometer. Standard scans were performed on 10 μM solutions of peptide in PBS (50 mM sodium phosphate, 150 mM sodium chloride [pH 7.4]) from 200 to 260 nm in a 1 cm pathlength cuvette with a 5 second averaging time. The mean residue ellipticity (θ) was calculated by dividing the raw signal by peptide concentration (M), pathlength (mm) and number of amino acids. Percent helicity was calculated according to Chen et al. (Biochemistry, 13, 1974, p3350). Thermal denaturation scans of 10 μM peptide solutions in PBS were recorded at 222 nm. The peptide was heated at two degree intervals starting at 4° C., with an equilibration time of 1.5 minutes and an averaging time of 60 seconds.

[5] = Solubility of the peptide (observation)
[6] = system: HIV, modified to contain a luciferase reporter gene; format: cell-based; conditions: HOS cells expressing CD4 and coreceptor, 6 hours with virus, 48 hours more; read-out: IC50 of inhibition of luciferase activity
Method: HIV, modified to contain a luciferase reporter gene, is mixed with HOS cells expressing CD4 and coreceptor in the presence of diluted protein for 6 hours at 37° C. […] The virus solution is replaced, and the HOS culture is incubated 48 hours more in fresh media. Luciferase activity is measured in a luminometer.

[7] = system: syncytia formation between HELA cells expressing CD4 and coreceptor and CHO cells expressing gp160; assay: Cell/cell fusion (syncytia) assay; format: cell-based, HIV; conditions: HELA CD4/coreceptor + CHO gp160/Tat, 8 to 24 hours; read-out: IC50 of inhibition of syncytia formation
Method: Assays were carried out to assess the ability of IQN17 to interact with the C-region of gp41 and inhibit function of the fusion protein. This inhibition of membrane fusion by IQN17 and IQN23 and GCN4-pIQI was assessed using a cell based assay. Proteins IQN17, IQN23 and GCN4-pIQI are serially diluted in modified DMEM media with 5% FCS and aliquoted into slide chambers. HELA cells (4×10^4) expressing CD4 and coreceptor and containing a βgalactosidase gene under the control of the Tat promoter are added. CHO cells (2×10^4) expressing gp160 (precursor protein to gp120/gp41) and Tat are also added. The 400 μl miniculture is incubated at 37° for 8 to 24 hours; fused cells (syncytia) will transcribe and translate β-galactosidase. The cells are fixed in gluteraldehyde and exposed to X-gal/Fe solution for one hour. Syncytia that contain P-galactosidase turn blue-green.

[8] = read-out: IC50 (concentration at which half of viral infectivity is inhibited), Table 1
[9] = 20 μM peptide in PBS, 3.0 = discrete trimer
[10] = midpoint of thermal denaturation, 10 μM peptide in PBS
[11] = read-out: IC50 for viral infectivity

Substance: Ac-IKKEIEAIKKEQEAIKKKIEAIEKLLQLTVWGIKQLQARIL-NH2 [IZN17]
- oligomeric state ([1]; at 20 μM): discretely trimeric
- θ222 nm [2]: ~−31,000 deg cm^2 dmol^−1
- helicity [2]: helical
- thermal denaturation temperature compared with IQN17 [3]: ten degrees higher
- melting point: > 100 °C
- IC50 (HIV-1; [8]): 5.6 nM

Substance: Ac-KIEEIESKIKKIENEIARIKKLLQLTVWGIKQLQARIL-NH2 [II22N17]
- Mobs/Mcalc [1, 9]: 3.02
- CD minimum at 222 nm [2]: ~−41,000 deg cm^2 dmol^−1
- θ222 nm [2]: ~−41,000 deg cm^2 dmol^−1
- melting point: > 100 °C
- Melting Temperature ([4]; at 10 μM): > 100 °C
- Melting Temperature [4, 10]: >100 °C
- IC50 (HIV-1; [8]): ~170 nM
- IC50 (HIV-1; [11]): ~170 nM

Substance: Ac-KIEEIESKQKKIENEIARIKKLLQLTVWGIKQLQARIL-NH2 [IQ22N17]
- Mobs/Mcalc ([1]; determined at 50 μM): 2.73*
- CD minimum at 222 nm [2]: approximately −36,000 deg cm^2 dmol^−1
- θ222 nm [2]: ~−36,000 deg cm^2 dmol^−1
- melting point: ~ 76 °C
- Melting Temperature ([4]; at 10 μM): below 80 °C
- Melting Temperature [4, 10]: ~76 °C
- IC50 (HIV-1; [8]): ~1000 nM
- IC50 (HIV-1; [11]): ~1000 nM

Substance: Ac-KIKKIENEIARIKKLLQLTVWGIKQLQARIL-NH2 [II15N17]
- Mobs/Mcalc [1, 9]: 2.64
- CD minimum at 222 nm [2]: ~−33,000 deg cm^2 dmol^−1
- θ222 nm [2]: ~−33,000 deg cm^2 dmol^−1
- melting point: ~ 76 °C
- Melting Temperature [4, 10]: ~76 °C
- IC50 (HIV-1; [8]): ~3000 nM
- IC50 (HIV-1; [11]): ~3000 nM

Substance: Ac-LLQLTVWGIKQLQARIL-NH2 [N17, reference compound]
- solubility [5]: difficult to get into solution—it precipitates
- IC50 (HIV-1; [8]): ~10000 nM
- IC50 (HIV-1; [11]): ~10000 nM

Substance: Ac-RMKQIEDKIEEIESKQKKIENEIARIKKLIEAQQHLLQLTVWGIKQLQARIL-NH2 [IQN23]
- Mobs/Mcalc [1, 9]: 3.29
- Mobs/Mcalc ([1]; at 20 μM): 3.3
- IC50 [6]: ~80 nM
- gain in inhibitory activity relative to IQN17 (HIV-1; gp41 residues increased from 17): ~6 fold
- IC50 (HIV-1; [8]): ~30 nM
- IC50 (HIV-1; [11]): ~30 nM

Substance: Ac-RMKQIEDKIEEIESKQKKIENEIARIKKLLQLTVWDIKQLQARIL-NH2 [IQN17(G572D), reference compound]
- θ222 nm [2]: ~−39,000 deg cm^2 dmol^−1
- IC50 (HIV-1; [8]): ~20000 nM
- IC50 (HIV-1; [11]): ~20000 nM

Substance: Ac-RMKQIEDKIEEIESKQKKIENEIARIKKLLQLTVWGIKQLQARIL-NH2 [IQN17]
- IC50 [7]: 20 to 80 nM
- Mobs/Mcalc [1, 9]: 3.15
- oligomeric state ([1]; at 20 μM): discretely trimeric
- θ222 nm [2]: ~−36,000 deg cm^2 dmol^−1
- helicity [2]: fully helical
- melting point: > 100 °C
- Melting Temperature ([4]; at 10 μM): above 100 °C
- Melting Temperature ([4]; concentration not given): above 100 °C
- Melting Temperature [4, 10]: >100 °C
- IC50 [6]: ~250 nM
- IC50 (HIV-1; [8]): ~180 nM
- IC50 (HIV-1; [11]): ~180 nM

Substance: Ac-YGGIKKKEIEAIKKEQEAIKKKIEAIEKEIVQARQLLSGIVQQQNNLLRAIEAQQH-NH2 [IZN26]
- Melting Temperature [4, 10]: ~82 °C

Substance: EIARIKKLLQLTVWGIKQLQARIL [IQ8N17]
- IC50 (HIV-1; [8]): ~10000 nM

Substance: KQKKIENEIARIKKLLQLTVWGIKWLWARIL [IQ15N17]
- CD minimum at 222 nm [2]: approximately −27,000 deg cm^2 dmol^−1
- θ222 nm [2]: ~−27,000 deg cm^2 dmol^−1
- thermal stability lower than that of IQ22N17 [4]: about 10 degrees
- Melting Temperature [4, 10]: ~64 °C
- IC50 (HIV-1; [8]): ~10000 nM
